22 molecules from ChEMBL document CHEMBL2311426, “Synthesis and antibacterial activity of novel water-soluble nocathiacin analogs” (Bioorg Med Chem Lett, 2013) can be followed below.

Data set [1] is described as follows: Aqueous solubility of the compound in water containing 5% dextrose at pH 4. It counts as physicochemical.
A further data set deals with Staphylococcus aureus. As to the kind of experiment: Antibacterial activity against Staphylococcus aureus MB2865 by turbidity method. It counts as functional. Particulars: read-out: MIC100.
The subject of another data set is Enterococcus faecalis. As to the kind of experiment: Antibacterial activity against Enterococcus faecalis C21560 by turbidity method. It counts as functional. The note with it: read-out: MIC100.
For a further data set, the system named is Streptococcus pneumoniae. As to the kind of experiment: Antibacterial activity against Streptococcus pneumoniae CL2883 by turbidity method. It counts as functional. The note with it: read-out: MIC100.

What is called solubility is how much of the substance goes into solution per volume.

≈ marks a conversion by molar mass, not a printed value.

The molecule `CO/C(C)=C1/NC(=O)[C@H]([C@@H](C)O)NC(=O)c2csc(n2)-c2cc(O)c(-c3nc(CNC(=O)NCCN(C)C)cs3)nc2-c2csc(n2)[C@@H]2COC(=O)c3c4c5c(cccc5n3O)COC(=O)[C@@H](O[C@H]3C[C@](C)(O)[C@H](N(C)C)[C@H](C)O3)[C@@H](OC4)[C@H](NC(=O)c3csc1n3)c1nc(cs1)C(=O)N2.O=C(O)C(F)(F)F` gave a solubility in data set [1] of more than 10000 µg/mL.

On to `CO/C(C)=C1/NC(=O)[C@H]([C@@H](C)O)NC(=O)c2csc(n2)-c2cc(O)c(-c3nc(CNC(=O)CCN4CCOCC4)cs3)nc2-c2csc(n2)[C@@H]2COC(=O)c3c4c5c(cccc5n3O)COC(=O)[C@@H](O[C@H]3C[C@](C)(O)[C@H](N(C)C)[C@H](C)O3)[C@@H](OC4)[C@H](NC(=O)c3csc1n3)c1nc(cs1)C(=O)N2.O=C(O)C(F)(F)F`, for which the solubility in data set [1] was more than 10000 µg/mL. As to `CO/C(C)=C1/NC(=O)[C@H]([C@@H](C)O)NC(=O)c2csc(n2)-c2cc(O)c(-c3nc(CNC(=O)CN4CCN(C)CC4)cs3)nc2-c2csc(n2)[C@@H]2COC(=O)c3c4c5c(cccc5n3O)COC(=O)[C@@H](O[C@H]3C[C@](C)(O)[C@H](N(C)C)[C@H](C)O3)[C@@H](OC4)[C@H](NC(=O)c3csc1n3)c1nc(cs1)C(=O)N2.O=C(O)C(F)(F)F`, in data set [1], the solubility is more than 10000 µg/mL. In data set [1], `CO/C(C)=C1/NC(=O)[C@H]([C@@H](C)O)NC(=O)c2csc(n2)-c2cc(O)c(-c3nc(CNC(=O)CN4CCOCC4)cs3)nc2-c2csc(n2)[C@@H]2COC(=O)c3c4c5c(cccc5n3O)COC(=O)[C@@H](O[C@H]3C[C@](C)(O)[C@H](N(C)C)[C@H](C)O3)[C@@H](OC4)[C@H](NC(=O)c3csc1n3)c1nc(cs1)C(=O)N2.O=C(O)C(F)(F)F` yielded a solubility of more than 10000 µg/mL. The molecule `CO/C(C)=C1/NC(=O)[C@H]([C@@H](C)O)NC(=O)c2csc(n2)-c2cc(O)c(-c3nc(CNC(=O)CN(C)C)cs3)nc2-c2csc(n2)[C@@H]2COC(=O)c3c4c5c(cccc5n3O)COC(=O)[C@@H](O[C@H]3C[C@](C)(O)[C@H](N(C)C)[C@H](C)O3)[C@@H](OC4)[C@H](NC(=O)c3csc1n3)c1nc(cs1)C(=O)N2.O=C(O)C(F)(F)F` had a solubility in data set [1] of more than 10000 µg/mL. On the same count and under the same terms, under `CO/C(C)=C1/NC(=O)[C@H]([C@@H](C)O)NC(=O)c2csc(n2)-c2cc(O)c(-c3nc(CNCc4cncnc4)cs3)nc2-c2csc(n2)[C@@H]2COC(=O)c3c4c5c(cccc5n3O)COC(=O)[C@@H](O[C@H]3C[C@](C)(O)[C@H](N(C)C)[C@H](C)O3)[C@@H](OC4)[C@H](NC(=O)c3csc1n3)c1nc(cs1)C(=O)N2.O=C(O)C(F)(F)F` stands more than 10000 µg/mL; under `CO/C(C)=C1/NC(=O)[C@H]([C@@H](C)O)NC(=O)c2csc(n2)-c2cc(O)c(-c3nc(CN(CCO)CCO)cs3)nc2-c2csc(n2)[C@@H]2COC(=O)c3c4c5c(cccc5n3O)COC(=O)[C@@H](O[C@H]3C[C@](C)(O)[C@H](N(C)C)[C@H](C)O3)[C@@H](OC4)[C@H](NC(=O)c3csc1n3)c1nc(cs1)C(=O)N2.O=C(O)C(F)(F)F`, more than 10000 µg/mL; under `CO/C(C)=C1/NC(=O)[C@H]([C@@H](C)O)NC(=O)c2csc(n2)-c2cc(O)c(-c3nc(CNCC(C)(C)N4CCCCC4)cs3)nc2-c2csc(n2)[C@@H]2COC(=O)c3c4c5c(cccc5n3O)COC(=O)[C@@H](O[C@H]3C[C@](C)(O)[C@H](N(C)C)[C@H](C)O3)[C@@H](OC4)[C@H](NC(=O)c3csc1n3)c1nc(cs1)C(=O)N2.O=C(O)C(F)(F)F`, more than 10000 µg/mL.

`CO/C(C)=C1/NC(=O)[C@H]([C@@H](C)O)NC(=O)c2csc(n2)-c2cc(O)c(-c3nc(CNCCO)cs3)nc2-c2csc(n2)[C@@H]2COC(=O)c3c4c5c(cccc5n3O)COC(=O)[C@@H](O[C@H]3C[C@](C)(O)[C@H](N(C)C)[C@H](C)O3)[C@@H](OC4)[C@H](NC(=O)c3csc1n3)c1nc(cs1)C(=O)N2.O=C(O)C(F)(F)F`: the solubility in data set [1] is more than 10000 µg/mL. Still for that read-out and setting: under `CO/C(C)=C1/NC(=O)[C@H]([C@@H](C)O)NC(=O)c2csc(n2)-c2cc(O)c(-c3nc(CNCC(O)CO)cs3)nc2-c2csc(n2)[C@@H]2COC(=O)c3c4c5c(cccc5n3O)COC(=O)[C@@H](O[C@H]3C[C@](C)(O)[C@H](N(C)C)[C@H](C)O3)[C@@H](OC4)[C@H](NC(=O)c3csc1n3)c1nc(cs1)C(=O)N2.O=C(O)C(F)(F)F` (some centres undefined) stands more than 10000 µg/mL; under `CO/C(C)=C1/NC(=O)[C@H]([C@@H](C)O)NC(=O)c2csc(n2)-c2cc(O)c(-c3nc(CNCC[C@H](O)[C@H](O)CO)cs3)nc2-c2csc(n2)[C@@H]2COC(=O)c3c4c5c(cccc5n3O)COC(=O)[C@@H](O[C@H]3C[C@](C)(O)[C@H](N(C)C)[C@H](C)O3)[C@@H](OC4)[C@H](NC(=O)c3csc1n3)c1nc(cs1)C(=O)N2.O=C(O)C(F)(F)F`, more than 10000 µg/mL.

As to `CO/C(C)=C1/NC(=O)[C@H]([C@@H](C)O)NC(=O)c2csc(n2)-c2cc(O)c(-c3nc(CN(C)C)cs3)nc2-c2csc(n2)[C@@H]2COC(=O)c3c4c5c(cccc5n3O)COC(=O)[C@@H](O[C@H]3C[C@](C)(O)[C@H](N(C)C)[C@H](C)O3)[C@@H](OC4)[C@H](NC(=O)c3csc1n3)c1nc(cs1)C(=O)N2.O=C(O)C(F)(F)F`, in data set [1], the solubility is more than 10000 µg/mL. As for `CO/C(C)=C1/NC(=O)[C@H]([C@@H](C)O)NC(=O)c2csc(n2)-c2cc(O)c(-c3nc(CNC(=O)NCCc4cnc[nH]4)cs3)nc2-c2csc(n2)[C@@H]2COC(=O)c3c4c5c(cccc5n3O)COC(=O)[C@@H](O[C@H]3C[C@](C)(O)[C@H](N(C)C)[C@H](C)O3)[C@@H](OC4)[C@H](NC(=O)c3csc1n3)c1nc(cs1)C(=O)N2`, the figures for the MIC in the data set with Staphylococcus aureus and with Enterococcus faecalis were 0.125 µg/mL (≈ 0.0838 µM) and 0.5 µg/mL (≈ 0.335 µM), respectively. The like results for `CO/C(C)=C1/NC(=O)[C@H]([C@@H](C)O)NC(=O)c2csc(n2)-c2cc(O)c(-c3nc(CNC(=O)NCCN(C)C)cs3)nc2-c2csc(n2)[C@@H]2COC(=O)c3c4c5c(cccc5n3O)COC(=O)[C@@H](O[C@H]3C[C@](C)(O)[C@H](N(C)C)[C@H](C)O3)[C@@H](OC4)[C@H](NC(=O)c3csc1n3)c1nc(cs1)C(=O)N2` were, in that order, 0.125 µg/mL (≈ 0.0851 µM) and 0.5 µg/mL (≈ 0.34 µM).

With `CO/C(C)=C1/NC(=O)[C@H]([C@@H](C)O)NC(=O)c2csc(n2)-c2cc(O)c(-c3nc(CNC(=O)NCC(O)CO)cs3)nc2-c2csc(n2)[C@@H]2COC(=O)c3c4c5c(cccc5n3O)COC(=O)[C@@H](O[C@H]3C[C@](C)(O)[C@H](N(C)C)[C@H](C)O3)[C@@H](OC4)[C@H](NC(=O)c3csc1n3)c1nc(cs1)C(=O)N2` (some centres undefined), the MIC with Streptococcus pneumoniae turned out to be 0.015 µg/mL (≈ 0.0102 µM); with Staphylococcus aureus it was 0.06 µg/mL (≈ 0.0408 µM); with Enterococcus faecalis it was 0.5 µg/mL (≈ 0.34 µM). As for `CO/C(C)=C1/NC(=O)[C@H]([C@@H](C)O)NC(=O)c2csc(n2)-c2cc(O)c(-c3nc(CNC(=O)C(N)=O)cs3)nc2-c2csc(n2)[C@@H]2COC(=O)c3c4c5c(cccc5n3O)COC(=O)[C@@H](O[C@H]3C[C@](C)(O)[C@H](N(C)C)[C@H](C)O3)[C@@H](OC4)[C@H](NC(=O)c3csc1n3)c1nc(cs1)C(=O)N2`, the MIC with Streptococcus pneumoniae is 0.00457 µg/mL (≈ 0.00321 µM); with Staphylococcus aureus it was 0.0075 µg/mL (≈ 0.00526 µM); in the data set with Enterococcus faecalis it was 0.0075 µg/mL (≈ 0.00526 µM). In the case of `CO/C(C)=C1/NC(=O)[C@H]([C@@H](C)O)NC(=O)c2csc(n2)-c2cc(O)c(-c3nc(CNC(=O)C(NC(N)=O)c4ccc(O)cc4)cs3)nc2-c2csc(n2)[C@@H]2COC(=O)c3c4c5c(cccc5n3O)COC(=O)[C@@H](O[C@H]3C[C@](C)(O)[C@H](N(C)C)[C@H](C)O3)[C@@H](OC4)[C@H](NC(=O)c3csc1n3)c1nc(cs1)C(=O)N2` (some centres undefined), the MIC in the data set with Staphylococcus aureus and in the data set on Enterococcus faecalis was more than 1 µg/mL each time. As to `CO/C(C)=C1/NC(=O)[C@H]([C@@H](C)O)NC(=O)c2csc(n2)-c2cc(O)c(-c3nc(CN(CCO)CCO)cs3)nc2-c2csc(n2)[C@@H]2COC(=O)c3c4c5c(cccc5n3O)COC(=O)[C@@H](O[C@H]3C[C@](C)(O)[C@H](N(C)C)[C@H](C)O3)[C@@H](OC4)[C@H](NC(=O)c3csc1n3)c1nc(cs1)C(=O)N2`, the values for the MIC in the data set on Streptococcus pneumoniae, in the data set on Staphylococcus aureus and in the data set with Enterococcus faecalis were 0.0075 µg/mL (≈ 0.0052 µM), 0.06 µg/mL (≈ 0.0416 µM) and 0.12 µg/mL (≈ 0.0832 µM), respectively.

As for `CO/C(C)=C1/NC(=O)[C@H]([C@@H](C)O)NC(=O)c2csc(n2)-c2cc(O)c(-c3nc(CNCC(C)(C)N4CCOCC4)cs3)nc2-c2csc(n2)[C@@H]2COC(=O)c3c4c5c(cccc5n3O)COC(=O)[C@@H](O[C@H]3C[C@](C)(O)[C@H](N(C)C)[C@H](C)O3)[C@@H](OC4)[C@H](NC(=O)c3csc1n3)c1nc(cs1)C(=O)N2`, the MIC in the data set on Streptococcus pneumoniae came to 0.00046 µg/mL (≈ 0.000308 µM); in the data set with Staphylococcus aureus, 0.06 µg/mL (≈ 0.0401 µM); in the data set on Enterococcus faecalis, 0.03 µg/mL (≈ 0.0201 µM). With `CO/C(C)=C1/NC(=O)[C@H]([C@@H](C)O)NC(=O)c2csc(n2)-c2cc(O)c(-c3nc(CNCC(O)CO)cs3)nc2-c2csc(n2)[C@@H]2COC(=O)c3c4c5c(cccc5n3O)COC(=O)[C@@H](O[C@H]3C[C@](C)(O)[C@H](N(C)C)[C@H](C)O3)[C@@H](OC4)[C@H](NC(=O)c3csc1n3)c1nc(cs1)C(=O)N2` (some centres undefined), the MIC is 0.0075 µg/mL (≈ 0.00525 µM) in the data set with Streptococcus pneumoniae, 0.06 µg/mL (≈ 0.042 µM) in the data set with Staphylococcus aureus and 0.25 µg/mL (≈ 0.175 µM) with Enterococcus faecalis. For the molecule `CO/C(C)=C1/NC(=O)[C@H]([C@@H](C)O)NC(=O)c2csc(n2)-c2cc(O)c(-c3nc(CNCC[C@H](O)[C@H](O)CO)cs3)nc2-c2csc(n2)[C@@H]2COC(=O)c3c4c5c(cccc5n3O)COC(=O)[C@@H](O[C@H]3C[C@](C)(O)[C@H](N(C)C)[C@H](C)O3)[C@@H](OC4)[C@H](NC(=O)c3csc1n3)c1nc(cs1)C(=O)N2`, the MIC came out at 0.015 µg/mL (≈ 0.0102 µM) in the data set with Streptococcus pneumoniae, 0.125 µg/mL (≈ 0.0849 µM) in the data set on Staphylococcus aureus and 1 µg/mL (≈ 0.679 µM) in the data set on Enterococcus faecalis.

Turning to `C=C(NC(=O)c1csc(-c2nc3c(cc2O)-c2nc(cs2)C(=O)N[C@@H]([C@@H](C)O)C(=O)N/C(=C(\C)OC)c2nc(cs2)C(=O)N[C@@H]2c4nc(cs4)C(=O)N[C@@H](COC(=O)c4c5c6c(cccc6n4O)COC(=O)[C@@H](O[C@H]4C[C@](C)(O)[C@H](N(C)C)[C@H](C)O4)[C@H]2OC5)c2nc-3cs2)n1)C(N)=O` [MJ347-81F4 A], the MIC with Streptococcus pneumoniae stood at 0.002 µg/mL (≈ 0.00139 µM); in the data set on Staphylococcus aureus, 0.007 µg/mL (≈ 0.00487 µM); with Enterococcus faecalis, 0.03 µg/mL (≈ 0.0209 µM).
